Results as given in the supplement of paper PMC5770543.
± gives the standard deviation.

Key:
[1] = test system: Toxoplasma gondii RH tachyzoites; assay: % growth inhibition vs DMSO (48 h luciferase); higher = more inhibition; details: 10 µM
[2] = test system: Plasmodium falciparum 3D7; assay: % inhibition of schizont-to-ring transition vs DMSO; higher = more inhibition
How it was run: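 Schizont-to-ring transition inhibition is the formation of new rings relative to vehicle controls. Tightly synchronised P. falciparum schizonts at about 40–42 hours post-invasion (1% parasitemia, 2.5% hematocrit, AlbuMAX-supplemented RPMI) were treated with compound at 1, 3 or 10 µM, alongside vehicle and positive controls. After glutaraldehyde fixation, Triton permeabilisation and Hoechst 33342 staining, at least 100,000 events were counted by flow cytometry, and values are the mean of three experiments.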

[3] = test system: Toxoplasma gondii RH tachyzoites; assay: plaque count per well; higher = less inhibition; extreme values may be limits of the assay; details: 10 µM; 8-10 days
Protocol: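 T. gondii RH tachyzoites expressing firefly luciferase were grown in HFF monolayers for 48 h with compound. % growth inhibition at 10 µM and EC50 (2-fold dilutions from 10 µM) were read by luminescence relative to 1% DMSO; EC50 listed as 10 (not determined, <80% inhibition) is left out. Plaque assays: 50 tachyzoites per well with 10 µM compound for 8-10 days, giving plaque count and area by crystal violet/ImageJ. Egress: median time to egress after 1 µM A23187 ionophore following 24 h of 10 µM compound (DMSO ~1.8 min; >10 = no egress within 10 min).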

[4] = test system: Plasmodium falciparum 3D7; assay: EC50 growth inhibition (60 h, SYBR Green); details: stage: ring-stage start
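Wherever % growth inhibition vs DMSO (48 h luciferase) is given: tested in triplicate wells of 96-well plates on confluent HFF monolayers, with 1% DMSO wells as negative control in four replicates.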

Structure (SMILES) | % growth inhibition [1] | % inhibition of schizont-to-ring transition ([2]; 1 µM) | % inhibition of schizont-to-ring transition ([2]; 3 µM) | % inhibition of schizont-to-ring transition ([2]; 10 µM) | plaque count per well [3] | EC50 growth inhibition [4]
Cc1ccc(C(=O)c2oc3ccc4c(C)cc(=O)oc4c3c2C)cc1 | < 0% | 6.95% | 10.6% | 20.4% | 24 | 
COc1ccc(CCN2C(=O)c3[nH]nc(-c4cc(Cl)c(C)cc4O)c3C2c2ccccc2F)cc1 (stereo not given) | < 0% | 20% | 20.6% | 46.1% | 0 | 
COc1ccc(C)c2sc(N(Cc3cccnc3)C(=O)c3ccc(C#N)cc3)nc12 | < 0% | 21.7% | 24.1% | 58.5% | 23 | 
CCN(CC)S(=O)(=O)c1ccc(-c2csc(Nc3ccc(C)c(C)c3)n2)cc1 | 71.8 ± 4.9% | 5.05% | 6.93% | 26.5% | 26 | 
O=C1c2ccccc2-c2nnc(-c3ccc(Br)cc3)cc21 | < 0% | 5.35% | 17.7% | 32.6% | 24 | 
O=C(Nc1ccsc1C(=O)NC1CCCCC1)c1ccc(F)cc1 | < 0% | 4.95% | 8.54% | 14.8% | 20 | 
O=C(NC1CCN(Cc2ccccc2)CC1)c1cc2nc(-c3ccc(Cl)s3)cc(C(F)(F)F)n2n1 | < 0% | 13.4% | 13.8% | 27.3% | 22 | 
CC(C)CNC(=O)c1c(N)n(CCc2ccccc2F)c2nc3ccccc3nc12 | < 0% | < 0% | < 0% | 15% | 28 | 
CCOC(=O)C1=C(C)N=c2sc(=Cc3ccccc3O)c(=O)n2C1c1ccc(OC)c2ccccc12 (stereo not given) | 4.31 ± 0.81% | 13.3% | 53.1% | 60.5% | 18 | 
CCCCCCOC(=O)C1=C(C)NC(=O)NC1c1ccccc1F (stereo not given) | < 0% | 32.7% | 32.8% | 40.9% | 31 | 
COc1ccc(CCNC(=O)c2cc(S(=O)(=O)N3CC(C)CC(C)C3)ccc2Sc2ccc(F)cc2)cc1OC (stereo not given) | 11.7 ± 10% | 11.3% | 12.5% | 22.9% | 28 | 
Cc1ccc(N2C3c4ccccc4N(S(=O)(=O)c4ccc(C)cc4)C2c2ccccc2N3S(=O)(=O)c2ccc(C)cc2)cc1 | 19.1 ± 3% | < 0% | 5.25% | 18.3% | 0 | 
COc1ccc(CNC(=O)c2cc3c(=O)n4ccccc4nc3n(CCc3ccccc3)c2=N)cc1 | 56.9 ± 14% | 9.38% | 17.6% | 47% |  | 2650 nM
COc1ccc(CCN2CCC(CN(C)Cc3cnn(-c4ccccc4)c3)CC2)cc1 | 63.1 ± 4.5% | 15.4% | 48.1% | 63.7% |  | 806 nM
Cc1ccc2cc3c(N)c4c(C)ccc(C)c4nc3nc2c1 | 56.3 ± 6.5% | 29% | 72.1% | 79.8% |  | 432 nM
Fc1ccc2[nH]c3c(NCCCN4CCOCC4)ncnc3c2c1 | 34.5 ± 17% | 3.9% | 32.7% | 53.9% |  | 466 nM
CN(C)c1ccc(-c2nc3cc(N)ccc3[nH]2)cc1 | 40.4 ± 8.4% | 5.79% | 18.4% | 66.7% |  | 3020 nM

Structure (SMILES) | % growth inhibition [1] | % inhibition of schizont-to-ring transition ([2]; 1 µM) | % inhibition of schizont-to-ring transition ([2]; 3 µM) | % inhibition of schizont-to-ring transition ([2]; 10 µM) | plaque count per well [3] | EC50 growth inhibition [4]
N#Cc1nc(Cc2cccc3ccccc23)oc1N1CCN(C(c2ccccc2)c2ccccc2)CC1 | 44.8 ± 8.8% | 21.5% | 27.3% | 52.8% |  | 5260 nM
CCOC(=O)c1cnc2c(C)cccc2c1Nc1ccc(C(C)=O)cc1 | 79.3 ± 2.5% | 28.3% | 45.9% | 51.5% |  | 550 nM
COc1cccc(Cn2c(Oc3ccccc3)nc3c2c(=O)n(C)c(=O)n3C)c1 | 72.4 ± 4.8% | 23.6% | 27.1% | 45.9% |  | 516 nM
O=C(Nc1ccc(-c2nc3cc4ccccc4cc3[nH]2)cc1)c1cccc(Br)c1 | 50.3 ± 8.7% | 10.2% | 38.5% | 61.9% |  | 4310 nM
CCN(CC)CCNc1ncnc2c1[nH]c1ccc(Cl)cc12 | 23.3 ± 2.6% | 16.1% | 52% | 66.5% |  | 230 nM
c1ccc2cc3c(Nc4ccc(N5CCOCC5)cc4)ccnc3cc2c1 | 60.2 ± 14% | 36.9% | 52.5% | 60.8% |  | 2510 nM
CCOc1cccc2sc(N(Cc3cccnc3)C(=O)C3CCCCC3)nc12 | 29.9 ± 10% | 35.3% | 38.9% | 56.6% |  | 4280 nM
COc1cc(C(=O)Nc2nc3c(cc4c5c(cccc53)CC4)s2)cc(OC)c1OC | 4.43 ± 6.7% | 3.9% | 8.08% | 22.5% | 38 | 
CCCCCCc1cc2cc(-c3nc4ccccc4[nH]3)c(=Nc3ccccc3C)oc2cc1O | < 0% | 9.35% | 11.5% | 23.5% | 3 | 
CCOC(=O)c1cnc2c(C)cc(C)cc2c1Nc1ccc(OC)c(OC)c1 | 54.2 ± 2.2% | 14.7% | 32.9% | 45.1% |  | 6690 nM
Nc1ccn([C@@H]2O[C@H](CO)[C@@H](O)[C@H]2O)c(=O)n1 | < 0% | 35.8% | 40.5% | 42.6% | 29 | 
Cc1ccc(N2C(=O)C3C(C2=O)C2(c4ccccc4)C(=O)C3(c3ccccc3)C(c3ccccc3)=C2c2ccccc2)cc1 (stereo not given) | 55.5 ± 9.4% | < 0% | < 0% | 24.4% |  | 4250 nM
CN(C)c1ccc(N=Cc2ccc(N3CCOCC3)cc2)cc1 | < 0% | 17.3% | 20% | 24% | 22 | 
O=C(CCc1ccccc1)c1ccccc1OCC(O)CN1CCCCC1 (stereo not given) | 66.1 ± 15% | 19% | 44.6% | 73.3% |  | 912 nM
CCC(c1ccccc1)c1nn2c(-c3cccs3)nnc2s1 (stereo not given) | 67.1 ± 4.9% | 48.6% | 60% | 65.8% |  | 147 nM
Cc1cc(NC(=O)c2cccc(C(F)(F)F)c2)n(-c2nc(-c3ccc4c(c3)OCO4)cs2)n1 | < 0% | 13.2% | 16.2% | 18.9% | 26 | 
CN1CCN(c2ncnc3c2[nH]c2ccc(Cl)cc23)CC1 | 28.6 ± 4.2% | 34% | 43.8% | 54.7% |  | 894 nM
